Measurements published in patent US4749690A, “Treatment of allergy with thymopentin” (Ortho Pharmaceutical Corporation, priority 1986, dated 1988).
Entries after “also recorded” stand apart in the source; their conditions may differ. No end group written: not given here.

Columns and labels:
[1] = test system: patients with Ragweed Hay Fever; experiment: double-blind placebo-controlled phase II study, patient-diary hay fever symptom counts; format: in vivo, human; details: for Average # Weekly Symptoms, Severe / Average # Weekly Symptoms, Total / Average # Weekly Symptoms, Mild: average per subject over weeks 3-12; for hay fever symptoms compared with placebo group (in words): 12 weeks
Source text: Each group was given a subcutaneous injection three times a week and an intravenous injection once a week; in the first group the first injection was thymopentin while the second was placebo, in the second group the first injection was placebo and the second thymopentin, while in the third group both injections were placebo. […] The application of the present invention is illustrated by the clinical study on thymopentin in the treatment of patients with Ragweed Hay Fever given in the Example which follows. Thirty (30) patients with a proven history of ragweed hay fever, who fulfill all of the inclusion criteria and none of the exclusion criteria, were enrolled in this single site study. This invention was a placebo-controlled phase II safety and efficacy study of Thymopentin (TP5) in the treatment of patients with Ragwood Hay Fever. Thirty (30) patients were assigned to either TP5 or placebo according to a double blind randomization schedule. Ten (10) patients were assigned to each of three (3) treatment groups described as follows. Group 1 received 1.0 ml TP5 (50 mg/ml) subcutaneously three (3) times per week and 5.0 ml placebo intravenously once weekly for twelve (12) weeks. Group 2 received 1.0 ml placebo subcutaneously three (3) times per week and 5.0 ml TP5 (20 mg/ml) intravenously once weekly for twelve (12) weeks. Group 3 received 1.0 ml placebo subcutaneously three (3) times per week and 5.0 ml placebo intravenously once weekly for twelve (12) weeks. 1. Each patient received subcutaneous injections three (3) times per week and one intravenous injection per week for twelve weeks, according to the group randomization schedule described above. 2. All patients received a diary in which allergy medication (chlortrimeton) taken during the course of the study and symptoms related to Ragweed Hay Fever were documented. Patients received specific instructions pertaining to continued maintenance of their symptom and medication diaries. The diaries were reviewed weekly and returned upon termination of treatment. Each of the thirty subjects recorded twice daily the occurrence of five symptoms using the mutually exclusive scores "none", "mild", and "severe". The efficacy of treatment was determined by comparison of the average weekly number of mild and severe symptoms per subject. In one analysis, a score was created for each subject based upon the number of times certain symptoms were noted over the ten-week period of study. Each occurrence of a mild or severe symptom was scored as "1" and the average weekly score over the ten weeks for which data were collected was computed for each subject. Pair-wise comparisons were made among the three groups using a standard t-test. […] A more detailed analysis used a repeated measures analysis of variance, in which the total weekly symptoms were compared on a week-by-week basis. The results are presented in Table II and graphically in FIGS. 1 through 3. This analysis indicates high significance among the three groups with respect to severe symptoms and all symptoms.

T lymphocytes = details: background art; cited from earlier work

RKDVY [TP5, H-ARG-LYS-ASP-VAL-TYR-OH]
Average number of symptoms per week per subject, Cough Mild ([1]; Group 1 (TP5 sc)): 0.14
Average number of symptoms per week per subject, Cough Sev. ([1]; Group 1 (TP5 sc)): 0.02
Average number of symptoms per week per subject, Itchy Eyes Mild ([1]; Group 1 (TP5 sc)): 2.45
Average number of symptoms per week per subject, Itchy Eyes Sev. ([1]; Group 1 (TP5 sc)): 0.18
Average number of symptoms per week per subject, Red Eyes Mild ([1]; Group 1 (TP5 sc)): 1.12
Average number of symptoms per week per subject, Red Eyes Sev. ([1]; Group 1 (TP5 sc)): 0.12
Average number of symptoms per week per subject, Runny Nose Mild ([1]; Group 1 (TP5 sc)): 3.51
Average number of symptoms per week per subject, Runny Nose Sev. ([1]; Group 1 (TP5 sc)): 1.86
Average number of symptoms per week per subject, Sneezing Mild ([1]; Group 1 (TP5 sc)): 2.97
Average number of symptoms per week per subject, Sneezing Sev. ([1]; Group 1 (TP5 sc)): 0.46
Average # Weekly Symptoms, Severe ([1]; Group 1, TP5 50 mg s.c. 3x/week, p vs placebo .1382): 2.64
Average # Weekly Symptoms, Total ([1]; Group 1, TP5 50 mg s.c. 3x/week, p vs placebo .1394): 12.84
Average # Weekly Symptoms, Mild ([1]; Group 1, TP5 50 mg s.c. 3x/week, p vs placebo .3059): 10.20
hay fever symptoms compared with placebo group (in words) ([1]; Group 1, thymopentin 50 mg subcutaneously three times per week, listed as Thymopentin): the difference from placebo is not statistically significant; also recorded: decreasing the number of severe hay fever symptoms
hay fever symptoms compared with placebo group (in words) ([1]; Group 1, thymopentin 50 mg subcutaneously three times per week, listed as thymopentin): experienced fewer symptoms than group 3; also recorded: effective regimens to palliate allergic symptoms
Total Mild & Severe Symptoms Combined, average weekly number ([1]; Group 1 TP5 s.c., week 3): 5.78
Total Mild Symptoms, average weekly number ([1]; Group 1 TP5 s.c., week 3): 5.22
Total Severe Symptoms, average weekly number ([1]; Group 1 TP5 s.c., week 3): 0.56
Total Mild & Severe Symptoms Combined, average weekly number ([1]; Group 1 TP5 s.c., week 4): 9.22
Total Mild Symptoms, average weekly number ([1]; Group 1 TP5 s.c., week 4): 8.11
Total Severe Symptoms, average weekly number ([1]; Group 1 TP5 s.c., week 4): 1.11
Total Mild & Severe Symptoms Combined, average weekly number ([1]; Group 1 TP5 s.c., week 5): 9.78
Total Mild Symptoms, average weekly number ([1]; Group 1 TP5 s.c., week 5): 9.00
Total Severe Symptoms, average weekly number ([1]; Group 1 TP5 s.c., week 5): 0.78
Total Mild & Severe Symptoms Combined, average weekly number ([1]; Group 1 TP5 s.c., week 6): 11.56
Total Mild Symptoms, average weekly number ([1]; Group 1 TP5 s.c., week 6): 10.11
Total Severe Symptoms, average weekly number ([1]; Group 1 TP5 s.c., week 6): 1.44
Total Mild & Severe Symptoms Combined, average weekly number ([1]; Group 1 TP5 s.c., week 7): 14.44
Total Mild Symptoms, average weekly number ([1]; Group 1 TP5 s.c., week 7): 13.11
Total Severe Symptoms, average weekly number ([1]; Group 1 TP5 s.c., week 7): 1.33
Total Mild & Severe Symptoms Combined, average weekly number ([1]; Group 1 TP5 s.c., week 8): 16.33
Total Mild Symptoms, average weekly number ([1]; Group 1 TP5 s.c., week 8): 14.44
Total Severe Symptoms, average weekly number ([1]; Group 1 TP5 s.c., week 8): 1.89
Total Mild & Severe Symptoms Combined, average weekly number ([1]; Group 1 TP5 s.c., week 9): 19.67
Total Mild Symptoms, average weekly number ([1]; Group 1 TP5 s.c., week 9): 18.56
Total Severe Symptoms, average weekly number ([1]; Group 1 TP5 s.c., week 9): 1.11
Total Mild & Severe Symptoms Combined, average weekly number ([1]; Group 1 TP5 s.c., week 10): 17.78
Total Mild Symptoms, average weekly number ([1]; Group 1 TP5 s.c., week 10): 15.22
Total Severe Symptoms, average weekly number ([1]; Group 1 TP5 s.c., week 10): 2.56
Total Mild & Severe Symptoms Combined, average weekly number ([1]; Group 1 TP5 s.c., week 11): 16.89
Total Mild Symptoms, average weekly number ([1]; Group 1 TP5 s.c., week 11): 13.11
Total Severe Symptoms, average weekly number ([1]; Group 1 TP5 s.c., week 11): 3.78
Total Mild & Severe Symptoms Combined, average weekly number ([1]; Group 1 TP5 s.c., week 12): 5.89
Total Mild Symptoms, average weekly number ([1]; Group 1 TP5 s.c., week 12): 5.67
Total Severe Symptoms, average weekly number ([1]; Group 1 TP5 s.c., week 12): 0.22
Average number of symptoms per week per subject, Cough Mild ([1]; Group 2 (TP5 iv)): 0.48
Average number of symptoms per week per subject, Cough Sev. ([1]; Group 2 (TP5 iv)): 0.03
Average number of symptoms per week per subject, Itchy Eyes Mild ([1]; Group 2 (TP5 iv)): 0.84
Average number of symptoms per week per subject, Itchy Eyes Sev. ([1]; Group 2 (TP5 iv)): 0.25
Average number of symptoms per week per subject, Red Eyes Mild ([1]; Group 2 (TP5 iv)): 0.75
Average number of symptoms per week per subject, Red Eyes Sev. ([1]; Group 2 (TP5 iv)): 0.08
Average number of symptoms per week per subject, Runny Nose Mild ([1]; Group 2 (TP5 iv)): 3.03
Average number of symptoms per week per subject, Runny Nose Sev. ([1]; Group 2 (TP5 iv)): 0.80
Average number of symptoms per week per subject, Sneezing Mild ([1]; Group 2 (TP5 iv)): 2.33
Average number of symptoms per week per subject, Sneezing Sev. ([1]; Group 2 (TP5 iv)): 0.61
Average # Weekly Symptoms, Total ([1]; Group 2, TP5 100 mg i.v. once weekly, p vs placebo .0145): 9.20
Average # Weekly Symptoms, Severe ([1]; Group 2, TP5 100 mg i.v. once weekly, p vs placebo .0232): 1.77
Average # Weekly Symptoms, Mild ([1]; Group 2, TP5 100 mg i.v. once weekly, p vs placebo .0257): 7.43
hay fever symptoms compared with placebo group (in words) ([1]; Group 2, thymopentin 100 mg intravenously once per week, listed as Thymopentin): statistically significant difference from group 3; also recorded: decreasing the number of severe hay fever symptoms
hay fever symptoms compared with placebo group (in words) ([1]; Group 2, thymopentin 100 mg intravenously once per week, listed as thymopentin): This difference was statistically significant for group 2; also recorded: effective regimens to palliate allergic symptoms
Total Mild & Severe Symptoms Combined, average weekly number ([1]; Group 2 TP5 i.v., week 3): 5.43
Total Mild Symptoms, average weekly number ([1]; Group 2 TP5 i.v., week 3): 4.43
Total Severe Symptoms, average weekly number ([1]; Group 2 TP5 i.v., week 3): 1.0
Total Mild & Severe Symptoms Combined, average weekly number ([1]; Group 2 TP5 i.v., week 4): 8.86
Total Mild Symptoms, average weekly number ([1]; Group 2 TP5 i.v., week 4): 8.43
Total Severe Symptoms, average weekly number ([1]; Group 2 TP5 i.v., week 4): 0.43
Total Mild & Severe Symptoms Combined, average weekly number ([1]; Group 2 TP5 i.v., week 5): 7.00
Total Mild Symptoms, average weekly number ([1]; Group 2 TP5 i.v., week 5): 6.71
Total Severe Symptoms, average weekly number ([1]; Group 2 TP5 i.v., week 5): 0.29
Total Mild & Severe Symptoms Combined, average weekly number ([1]; Group 2 TP5 i.v., week 6): 10.86
Total Mild Symptoms, average weekly number ([1]; Group 2 TP5 i.v., week 6): 9.29
Total Severe Symptoms, average weekly number ([1]; Group 2 TP5 i.v., week 6): 1.57
Total Mild & Severe Symptoms Combined, average weekly number ([1]; Group 2 TP5 i.v., week 7): 9.00
Total Mild Symptoms, average weekly number ([1]; Group 2 TP5 i.v., week 7): 8.00
Total Severe Symptoms, average weekly number ([1]; Group 2 TP5 i.v., week 7): 1.00
Total Mild & Severe Symptoms Combined, average weekly number ([1]; Group 2 TP5 i.v., week 8): 11.00
Total Mild Symptoms, average weekly number ([1]; Group 2 TP5 i.v., week 8): 8.57
Total Severe Symptoms, average weekly number ([1]; Group 2 TP5 i.v., week 8): 2.43
Total Mild & Severe Symptoms Combined, average weekly number ([1]; Group 2 TP5 i.v., week 9): 8.14
Total Mild Symptoms, average weekly number ([1]; Group 2 TP5 i.v., week 9): 7.71
Total Severe Symptoms, average weekly number ([1]; Group 2 TP5 i.v., week 9): 0.43
Total Mild & Severe Symptoms Combined, average weekly number ([1]; Group 2 TP5 i.v., week 10): 5.14
Total Mild Symptoms, average weekly number ([1]; Group 2 TP5 i.v., week 10): 4.71
Total Severe Symptoms, average weekly number ([1]; Group 2 TP5 i.v., week 10): 0.43
Total Mild & Severe Symptoms Combined, average weekly number ([1]; Group 2 TP5 i.v., week 11): 5.43
Total Mild Symptoms, average weekly number ([1]; Group 2 TP5 i.v., week 11): 5.14
Total Severe Symptoms, average weekly number ([1]; Group 2 TP5 i.v., week 11): 0.29
Total Mild & Severe Symptoms Combined, average weekly number ([1]; Group 2 TP5 i.v., week 12): 1.71
Total Mild Symptoms, average weekly number ([1]; Group 2 TP5 i.v., week 12): 1.57
Total Severe Symptoms, average weekly number ([1]; Group 2 TP5 i.v., week 12): 0.14
alleviating the symptoms of allergic rhinitis compared to placebo (in words) ([1]; double-blind study, route not specified): statistically significant compared to placebo
safety (in words) ([1]; general statement): very safe drug
differentiation of T lymphocytes (in words) (T lymphocytes): selectively stimulate the differentiation of T lymphocytes
